Where “and” joins values, the source holds several entries; their conditions need not be identical. Equal values may be shown once. Where only a bound is given, the exact number is not on record here.

The record followed here is paper PMC8096218, “Global RNA profiles show target selectivity and physiological effects of peptide-delivered antisense antibiotics” (Nucleic Acids Research, 2021).

Format in all cases: cell-based, Salmonella enterica serovar Typhimurium
The subject of one experiment is LT2 PhoP^C. Put plainly: MIC determination by broth microdilution. The settings on record: ∼10^5 cfu/ml; for increase in the MIC in the PhoP^C background compared to the wild-type strain: LT2 PhoP^C versus LT2 wt; for MIC in μM, LT2 PhoP^C: Table 3, three biological replicates. As for the experimental part: MIC values were determined by broth microdilution according to standard protocols with a few modifications ([26]). An overnight bacterial cell culture, supplemented with the appropriate antibiotic when needed, was diluted 1:100 in fresh MHB and grown to OD600 0.5. The obtained culture was diluted to ∼10^5 cfu/ml or 10^6 cfu/ml, as indicated, in non-cation-adjusted MHB. Subsequently, 190 μl bacterial solution was dispensed into a 96-well plate (Thermo Fisher Scientific) along with 10 μl of a 20x PPNA, PNA or peptide working solution. Growth was monitored by measuring the OD at 600 nm every 20 min in a Synergy H1 plate reader (Biotek) with continuous double-orbital shaking (237 cpm) at 37°C for 24 h.
Fig. S5. Growth k inetics for MIC determ ination of 10^5 cfu/m l Salmonella wt (LT 2) and its isogenic
Pho PC m utant in the presen ce of var ying co ncentra tio n s of the in dicat ed co njugat e s. ( A) KFF-acpP,
KFF-acpP-scram bled (scr) or KFF peptide in s erial dilutions from 10 µM to 0.3 µM. ( B) RXR- acpP,
RXR- acpP-scram bled (scr) or RXR peptide in serial dilutions from 10 µM to 0.3 µ M. ( C) T at-acpP,
T at-acpP-scram bled (scr) or T at peptide in serial dilutions from 20 µM to 0.6 µM. Data represent
the average of three biological replicates, error bars indicate standard error of the m ean (SEM).
(1 picture or pasted object on this page, not shown here)
Background: In broth dilution the organism is exposed to a series of concentrations in liquid medium.

Experiment [1] has as its system Salmonella gene expression. Put plainly: RNA-seq transcriptomic response. The settings on record: 15 min. As for the experimental part:
Bacterial overnight cultures were diluted 1:100 in fresh MHB and grown to OD600 0.5. The obtained cultures were diluted to ∼10^6 cfu/ml in non-cation-adjusted MHB. Afterward, the bacterial solution was transferred into low-binding 5 ml tubes (LABsolute) along with the 20× PNA, peptide or PPNA solution. The final concentrations were 5 μM for KFF- and RXR-PNAs, and 10 μM for Tat-PNAs. Equimolar concentrations were used for the respective peptide control conditions. As a negative control, cells were treated with the respective volume of sterile nuclease-free water, which was used as solvent for the test compounds.
A time kinetic was performed for subsequent northern blot analysis (5, 10, 15 min), in which the reaction was stopped at the indicated time points by using RNAprotect Bacteria (Qiagen). For RNA-seq analyses, adding RNAprotect Bacteria at 15 min post treatment stopped the reactions with the indicated PPNA constructs or the respective peptide. After vortexing for 5 s, the samples were incubated at room temperature for 10 min, followed by cell pelleting at 4°C and 21 100 ×g for 20 min. Pellets were directly used for RNA isolation or stored at –20°C (<2 days) until further processing. RNA was purified from bacterial pellets using isolation protocol #3, as described above (0.5 mg/ml lysozyme, miRNeasy).
DNase treatment, cDNA library preparation and sequencing was conducted at Vertis (Munich, Germany). The RNA samples were first fragmented using ultrasound (4 pulses of 30 s each at 4°C). Then, an oligonucleotide adapter was ligated to the 3′ ends of the RNA molecules. First-strand cDNA synthesis was performed using M-MLV reverse transcriptase and the 3′ adapter as primer. The first-strand cDNA was purified and the 5′ Illumina TruSeq sequencing adapter was ligated to the 3′ end of the antisense cDNA. The resulting cDNA was PCR-amplified to about 10–20 ng/μl using a high fidelity DNA polymerase. The cDNA was purified using the Agencourt AMPure XP kit (Beckman Coulter Genomics) and was analyzed by capillary electrophoresis. For Illumina NextSeq sequencing, the samples were pooled in approximately equimolar amounts. The cDNA pool was sequenced on an Illumina NextSeq 500 system using 75 bp read length.
Reads from the RNA-Seq experiments were trimmed, filtered and mapped against the S. enterica subsp. enterica serovar Typhimurium SL1344 reference genome and the three plasmids pSLT_SL1344, pCol1B9_SL1344 (other name is p2), and pRSF1010_SL1344 ([19]). BBDuk was applied to trim bases with a Phred quality score of <10, and adapters were removed simultaneously. Reads were then mapped against the reference genome using BBMap (v38.84) and then assigned genomic features, including both coding sequences and annotated sRNAs ([19],[29]) using the featureCounts method of the Subread (2.0.1) package.
All downstream analysis was performed using packages from the R/Bioconductor project. The raw read counts were imported and analyzed with edgeR (v3.30.0). Each set of PNA-peptide conjugate experiments (i.e. experiments with KFF, RXR and Tat peptide) was analyzed simultaneously. Genes with less than 14.6 counts per million (CPM) in at least three libraries were filtered. This cutoff value was calculated using 10/L, where L is the library size of the smallest sample (minimum library size) in millions.
Raw read counts were normalized by trimmed mean of M values (TMM) normalization. Differential expression analysis was conducted using edgeR ([31]). Estimation of quasi-likelihood (QL) dispersions was then run with the […] function. Then contrasts between all samples versus the water controls were created as input for the glmQLTest function.
Genes with an absolute fold change >2 and an adjusted P-value (Benjamini–Hochberg, ([32])) <0.001 were considered differentially expressed.

The subject of a further experiment is Salmonella wt. Put plainly: Kinetics of bactericidal effects (cfu determination and spot assay). The settings on record: ∼10^6 cfu/ml, 5 μM KFF-acpP, 5 μM RXR-acpP, 10 μM Tat-acpP versus scrambled counterparts; for time post treatment from which killing / reduced cfu/ml was visible: time points 15, 20, 40, 60, 120 min, performed three times. Here is the method:
An overnight bacterial cell culture was diluted 1:100 in fresh MHB and grown to OD600 0.5. The obtained culture was diluted to approximately 10^6 cfu/ml in non-cation-adjusted MHB. Afterwards, aliquots of 10 μl were directly used as input condition for cfu determination and spot assay on LB agar plates. Regarding the latter, serial dilutions were prepared as indicated, to evaluate the alteration of living bacteria upon exposure to the different PPNAs. At the same time, 190 μl of this bacterial solution was placed into 2 ml eppendorf tubes along with 10 μl of a 20× on-target or scrambled PPNA solution, adjusting the indicated MICs. At the indicated time points post treatment, aliquots were used for cfu determination and spot assay.
Figure 3. Kinetics of bactericidal effects for (A) 5 μM KFF-acpP versus 5 μM KFF-acpP-scr, (B) 5 μM RXR-acpP versus 5 μM RXR-acpP-scr and (C) 10 μM Tat-acpP versus 10 μM Tat-acpP-scr against Salmonella wt (∼10^6 cfu/ml). After the indicated time points post treatment (15, 20, 40, 60, 120 min), aliquots of each sample were harvested to determine the number of viable cells over time (cfu/ml […]; left panels). Additional aliquots were subjected to spot assays on LB agar plates, including the indicated dilutions (right panels). The experiment was performed three times. Error bars indicate standard error of the mean.

Where [2] appears, read: edgeR, versus water, 5 μM RXR-constructs, 10 μM Tat-constructs, triplicates, listed as PNATAT.
Where [3] appears, read: edgeR, versus water, 5 μM KFF-/RXR-constructs, 10 μM Tat-constructs, triplicates, listed as PNAKFF.
The mark [4] stands for this setting: edgeR, versus water, 5 μM RXR-constructs, 10 μM Tat-constructs, triplicates, listed as PNARXR.

Turning to “GRKKKRRQRRRYK [Tat-acpP, Tat peptide conjugated to 10-mer antisense PNA against acpP]”, in the experiment with LT2 PhoP^C, the “increase in the MIC in the PhoP^C background compared to the wild-type strain” value was “at least two to four times more resistant” and the “MIC in μM, LT2 PhoP^C” value came out at 10 µM. In experiment [1] (RNA-seq, 10 μM), the “number of differentially expressed sRNAs, apart from AmgR upregulation” value is “five”. Also, in experiment [1] (setting [2]), the “logFC SL1344_0066A” value amounted to 4.741 and the “logFC SL1344_2742” value stood at 3.794. Moreover, the “logFC sseG” value in experiment [1] (edgeR, versus water, 10 μM, triplicates) was 3.37. Further, the “logFC recJ” value in experiment [1] (edgeR, versus water, 10 μM, triplicates, listed as PNATAT) was 1.967. Moreover, in the experiment with Salmonella wt, the “bactericidal effects (cfu/ml, spot assay)” value (shortened to “bactericidal effects”) was “time-delayed and less pronounced”; the “time post treatment from which killing / reduced cfu/ml was visible” value is at least 40 min.
Regarding “KFFKFFKFFK [KFF-acpP, KFF peptide conjugated to 10-mer antisense PNA against the translational start site of acpP]”, the “MIC in μM, LT2 PhoP^C” value in the experiment on LT2 PhoP^C was “did not influence the inhibitory activity and 1.25 μM”. The “number of differentially expressed genes” value in experiment [1] (absolute fold change >2 and FDR-adjusted P-value <0.001 versus water, 5 μM KFF-/RXR-constructs, 10 μM Tat-constructs) is recorded as 5. In experiment [1] (RNA-seq, 5 μM), the “upregulation of AmgR transcript levels” value was about 1.9 fold; the “upregulation of mig-14, virK and yfiA mRNAs” value is 2- to 4 fold. Also, the “logFC yfiA” value in experiment [1] (edgeR, versus water, 5 μM KFF-/RXR-constructs, 10 μM Tat-constructs, triplicates) was 1.09. Also, in experiment [1] (setting [3]), the “logFC mig-14” value stood at 1.3466 and the “logFC virK” value turned out to be 1.758. Besides, in the experiment with Salmonella wt, the “bactericidal effects” value is “fast and strong killing”; the “time post treatment from which killing / reduced cfu/ml was visible” value is on record as at least 15 min.
“RXRRXRRXRRXRXB [RXR-acpP, RXR peptide conjugated to 10-mer antisense PNA against acpP]”: in the experiment with LT2 PhoP^C, the “increase in the MIC in the PhoP^C background compared to the wild-type strain” value is 2 fold and the “MIC in μM, LT2 PhoP^C” value is 2.5 µM. In experiment [1] (RNA-seq, 5 μM), the “number of downregulated sRNAs, apart from the induction of AmgR” value is reported as “four” and the “upregulation of mig-14” value came to 1.89 fold. Besides, in experiment [1] (setting [4]), the “logFC SL1344_0066A” value was 4.762, the “logFC SL1344_2742” value worked out at 3.54 and the “logFC mgtA” value turned out to be 1.7. In experiment [1] (edgeR, versus water, 5 μM, triplicates), this sequence yielded a logFC hfq of -1.309. Also, in the experiment on Salmonella wt, the “bactericidal effects” value is “fast and strong killing”; the “time post treatment from which killing / reduced cfu/ml was visible” value is listed as at least 15 min.
